Source: patent US9849190B2, “Peptide having cancer selective translocation function and use thereof” (SNU R&DB FOUNDATION, priority 2012, dated 2017)

Columns and labels:
VEGF = experiment: Slot-blot analysis of binding to VEGF; conditions: FIG. 2
Description: (§1) This is believed to be because the tumor-penetrating ability of the VPTD peptide of the present invention was maximized in the tumor tissue and the VPTD peptide did bind specifically to VEGF to inhibit vascular formation essential for the formation and progression of tumors. […] As a result, it could be seen that the VPTD peptide and the HPTD peptide did all bind to VEGF and heparin, which are overexpressed in tumor cells or tumor tissue.

[1] = test system: tumor cell line (MDA-MB-231, ATCC); experiment: Tumor cell penetration of fluorescent-labelled peptides (FACS, confocal microscopy); type: cell-based; conditions: for fluorescence of the tumor cells measured by FACS: MDA-MB-231, 60 minutes after inoculation, various peptide concentrations, FIG. 1A; for ability to penetrate the tumor cell line, confocal laser scanning microscope: MDA-MB-231, various peptide concentrations, FIG. 1B
Procedure: In order to test the tumor cell-targeting and tumor cell-penetrating abilities of the VPTD peptide of SEQ ID NO: 1 and the HPTD peptide of […], prepared in Example 1, the termini of the prepared peptides were labeled with a fluorescent dye, and then each of the peptides was inoculated into a tumor cell line (MDA-MB-231, ATCC) at various concentrations.
60 minutes after the inoculation, the fluorescence of the cells was measured by FACS, and the results of the measurement are shown in FIGS. 1A and 1B.

[2] = Slot-blot analysis of binding to heparin; conditions: FIG. 2
Description: as §1

tumor induced in mice = experiment: Tumor inhibitory effect in tumor-induced mice; type: in vivo; conditions: injected, volume measured every 3-4 days for 30 days, versus control, FIG. 3
Procedure: In order to test the effects of the VPTD peptide of SEQ ID NO: 1 (VSRRRRRRGGRRRR) and the HPTD peptide of SEQ ID NO: (CSSRKKNPNCRRH), prepared in Example 1, and the tumor-targeting and tumor-penetrating peptide-drug conjugates prepared in Example 2, a tumor was induced in mice, and when the tumor grew to a predetermined size, each of the peptides prepared in Example 1 and the tumor-targeting and tumor-penetrating peptide-drug conjugates prepared in Example 2 was injected into the mice. After injection, the volume of the tumor was measured at intervals of 3-4 days for 30 days. On day 30, the mice were sacrificed, and the tumor was extracted and photographed.
as §1

Sequence	binding to VEGF (VEGF)	fluorescence of the tumor cells measured by FACS [1]	ability to penetrate the tumor cell line, confocal laser scanning microscope [1]	binding to heparin [2]	progression of the tumor (tumor volume) (tumor induced in mice)
CSSRKKNPNCRRH (HPTD) [HPTD peptide]	did all bind	increased in a manner dependent on the concentration of the peptide	increased in a manner dependent on the concentration of the peptide	did all bind	–
VSRRRRRRGGRRRR (VPTD) [VPTD peptide]	did all bind	increased in a manner dependent on the concentration of the peptide	increased in a manner dependent on the concentration of the peptide	did all bind	significantly inhibited
